Patent US20250296917A1, “SPIRO-CYCLIC AMINE DERIVATIVES AS S1P MODULATORS” (AbbVie Deutschland GmbH & Co. KG, priority 2020, published 2025)

Columns and labels:
Type in all cases: cell-based
[1] = target: hS1PR2 (recombinant human S1P2 receptor) (Homo sapiens, UniProt O95136); experiment: hS1PR2 agonist aequorin luminescence assay (Euroscreen/Eurofins); conditions: agonism, cells co-expressing apoaequorin, human Gα16 and S1P2 receptor; read-out: hS1PR2 pEC50 (converted)
Protocol: Efficacy testing for hS1PR2 was performed at Euroscreen, Eurofins, France. Cells co-expressing mitochondrial Apoaequorin, recombinant human Gα16 and S1P2 receptor (FAST-0198A) grown to mid-log phase in culture media without antibiotics were detached with PBS-EDTA, centrifuged and resuspended in assay buffer (DMEM/HAM's F12 with HEPES, without phenol red+0.1 fatty acid free BSA) at a concentration of 1×10^6 cells/ml. Cells were incubated at room temperature for at least 4 h with coelenterazine. The reference agonists S1P and […] were tested to evaluate the performance of the assay on each day of the test and determine the EC50. For agonist testing, cell suspension was mixed 1:1 with test or reference agonist in 384-well plate. The resulting emission of light was recorded using a Hamamatsu Functional Drug Screening System 6000 (FDSS) luminometer. On each day of experimentation, reference compounds were tested at several concentrations to obtain a dose-response curve and an estimated EC50 value. Reference values thus obtained for the test were compared to historical values obtained from the same receptor and used to validate the experimental session.

human S1PR1 = target: T1, human S1PR1 (Homo sapiens, UniProt P21453); experiment: Intracellular Ca2+ release agonist assay (Calcium 5 FLIPR), CHO-K1 cells expressing human S1PR1; conditions: agonism, recombinant CHO-K1 cells with aequorin and Gq/i5; read-out: hS1PR1 pEC50 (converted)
T1 construct: host or cells: CHO-K1
Protocol: (§1) Agonist potency and efficacy were assessed by measurement of intracellular […] release. Recombinant CHO-K1 cells (Euroscreen, Brussels, Belgium) expressing human S1PR5, S1PR1, S1PR3 or S1PR4 receptors, aequorin, and GTP binding protein Gq/i5 were cultured using a medium containing nutrient mixture F-12 Ham (Sigma-Aldrich) supplemented with 10% FBS, 100 µg/mL gentamicin and equilibrated at 5% C02. 15.000 cells in […] medium were seeded into Biocoat poly-D-Lysine coated 384 well plates (Becton Dickinson #35-6663) and grown to ˜95% confluency after 24 h. Culture medium was replaced by an assay buffer consisting of HBBS with Ca2+ and Mg2+ (Invitrogen #14025-050), 20 mmol/L Hepes (Sigma-Aldrich #H-3375), 2.5 mmol/L probenecid (Sigma-Aldrich #P-8761, and 0.1% BSA (Sigma-Aldrich #A-7030) pH 7.4. The Calcium 5 no-wash FLIPR assay kit (Molecular Devices #5000625) was performed as described in the kit instructions. Cells were incubated with Calcium 5 dye for 1 h at 37° C., 5% CO2 in the dark. After 45 min adaptation to RT assessment of agonist stimulation of intracellular Ca2+ release was performed by addition of test compounds at various concentrations obtained by serial dilution. Phospho-fingolimod was used as positive control and reference agonist (intrinsic activity 100%).

human S1PR3 = target: T2, human S1PR3 (Homo sapiens, UniProt Q99500); experiment: Intracellular Ca2+ release agonist assay (Calcium 5 FLIPR), CHO-K1 cells expressing human S1PR3; conditions: agonism, recombinant CHO-K1 cells with aequorin and Gq/i5; read-out: hS1PR3 pEC50 (converted)
T2 construct: host or cells: CHO-K1
Protocol: as §1

Measured: EC50

T2 sequence (Q99500 whole entry): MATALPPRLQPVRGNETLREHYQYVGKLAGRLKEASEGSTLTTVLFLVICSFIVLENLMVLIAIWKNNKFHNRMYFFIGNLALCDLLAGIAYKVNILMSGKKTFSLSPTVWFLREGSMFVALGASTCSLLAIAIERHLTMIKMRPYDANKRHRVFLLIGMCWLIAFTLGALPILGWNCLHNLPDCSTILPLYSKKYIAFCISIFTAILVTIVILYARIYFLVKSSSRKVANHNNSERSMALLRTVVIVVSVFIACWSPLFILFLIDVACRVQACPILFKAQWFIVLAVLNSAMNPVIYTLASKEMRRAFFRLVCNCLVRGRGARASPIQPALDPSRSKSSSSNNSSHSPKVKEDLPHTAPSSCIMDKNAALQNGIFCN
T1 sequence (P21453 whole entry): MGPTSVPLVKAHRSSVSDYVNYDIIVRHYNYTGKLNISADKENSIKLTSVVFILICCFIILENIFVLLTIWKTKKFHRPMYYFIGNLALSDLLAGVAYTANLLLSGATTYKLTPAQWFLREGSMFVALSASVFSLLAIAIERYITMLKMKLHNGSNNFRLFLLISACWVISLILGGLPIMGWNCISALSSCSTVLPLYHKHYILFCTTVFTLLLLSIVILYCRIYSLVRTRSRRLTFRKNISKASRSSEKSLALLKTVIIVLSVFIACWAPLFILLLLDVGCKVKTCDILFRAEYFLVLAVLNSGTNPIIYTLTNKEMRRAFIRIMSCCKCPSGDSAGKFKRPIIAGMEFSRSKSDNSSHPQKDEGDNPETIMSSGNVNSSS
Chain of hS1PR2 (recombinant human S1P2 receptor) (O95136 whole entry): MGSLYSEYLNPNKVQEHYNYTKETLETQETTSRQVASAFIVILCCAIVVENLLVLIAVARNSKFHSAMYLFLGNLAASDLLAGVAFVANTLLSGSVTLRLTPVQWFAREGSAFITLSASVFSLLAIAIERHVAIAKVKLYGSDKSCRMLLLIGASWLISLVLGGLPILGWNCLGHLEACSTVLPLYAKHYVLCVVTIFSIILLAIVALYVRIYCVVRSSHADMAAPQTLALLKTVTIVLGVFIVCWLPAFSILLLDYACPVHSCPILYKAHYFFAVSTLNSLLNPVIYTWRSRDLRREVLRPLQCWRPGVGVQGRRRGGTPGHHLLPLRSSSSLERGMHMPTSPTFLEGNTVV

CCc1cccc(Cl)c1COc1ccc2c(c1)CC[C@@]21CN(CCC(=O)O)CCO1 [Compound 1a, (S)-3-(5-((2-chloro-6-ethylbenzyl)oxy)-2,3-dihydrospiro[indene-1,2′-morpholin]-4′-yl)propanoic acid]
< 5.01 µM: all assays above
